Test results from ChEMBL document CHEMBL3046252, “Synthesis and herbicidal potential of substituted aurones” (2012).

Key:
Type in all cases: functional
[1] = test system: Brassica rapa subsp. oleifera; assay: Herbicidal activity against Brassica rapa subsp. oleifera assessed as inhibition of root growth at 10 ug/ml after 65 hr by rape cup test; conditions: read-out: GI
[2] = test system: Paraixeris denticulata; assay: Herbicidal activity against Paraixeris denticulata assessed as germination rate at 1000 ug/ml measured on fourth day post dose (reference value: 100%)
[3] = test system: Echinochloa crus-galli; assay: Herbicidal activity against Echinochloa crus-galli (barnyard grass) plants assessed as inhibition of seedling growth at 1000 ug/ml after 65 hr by barnyard cup test; conditions: read-out: GI
[4] = test system: Paraixeris denticulata; assay: Herbicidal activity against Paraixeris denticulata assessed as germination rate at 1000 ug/ml measured on second day post dose (reference value: 76.7 +/- 0.3%)
[5] = test system: Paraixeris denticulata; assay: Herbicidal activity against Paraixeris denticulata assessed as germination rate at 1000 ug/ml measured on third day post dose (reference value: 97.4 +/- 0.6%)
[6] = test system: Digitaria sanguinalis; assay: Herbicidal activity against Digitaria sanguinalis (hairy crabgrass) assessed as germination rate at 1000 ug/ml measured on first day post dose (reference value: 0%)
[7] = test system: Digitaria sanguinalis; assay: Herbicidal activity against Digitaria sanguinalis (hairy crabgrass) assessed as germination rate at 1000 ug/ml measured on third day post dose (reference value: 100%)
[8] = test system: Echinochloa crus-galli; assay: Herbicidal activity against Echinochloa crus-galli (barnyard grass) plants assessed as inhibition of seedling growth at 100 ug/ml after 65 hr by barnyard cup test; conditions: read-out: GI
[9] = test system: Brassica rapa subsp. oleifera; assay: Herbicidal activity against Brassica rapa subsp. oleifera assessed as inhibition of root growth at 1000 ug/ml after 65 hr by rape cup test; conditions: read-out: GI
[10] = test system: Digitaria sanguinalis; assay: Herbicidal activity against Digitaria sanguinalis (hairy crabgrass) assessed as germination rate at 1000 ug/ml measured on second day post dose (reference value: 100%)
[11] = test system: Brassica rapa subsp. oleifera; assay: Herbicidal activity against Brassica rapa subsp. oleifera assessed as inhibition of root growth at 100 ug/ml after 65 hr by rape cup test; conditions: read-out: GI
[12] = test system: Echinochloa crus-galli; assay: Herbicidal activity against Echinochloa crus-galli (barnyard grass) plants assessed as germination rate at 1000 ug/ml measured on second day post dose (reference value: 100%)
[13] = test system: Paraixeris denticulata; assay: Herbicidal activity against Paraixeris denticulata assessed as germination rate at 1000 ug/ml measured on first day post dose (reference value: 30.8 +/- 1.2%)
[14] = test system: Echinochloa crus-galli; assay: Herbicidal activity against Echinochloa crus-galli (barnyard grass) plants assessed as germination rate at 1000 ug/ml measured on first day post dose (reference value: 49.1 +/- 1.6%)
[15] = test system: Digitaria sanguinalis; assay: Post-emergence herbicidal activity against Digitaria sanguinalis (hairy crabgrass) seedlings assessed as inhibition of plant fresh weight growth at 1500 g/ha applied through spraying under greenhouse conditions; conditions: read-out: GI
[16] = test system: Echinochloa crus-galli; assay: Post-emergence herbicidal activity against Echinochloa crus-galli (barnyard grass) seedlings assessed as inhibition of plant fresh weight growth at 1500 g/ha applied through spraying under greenhouse conditions; conditions: read-out: GI
[17] = test system: Amaranthus retroflexus; assay: Pre-emergence herbicidal activity against Amaranthus retroflexusassessed as inhibition of plant fresh weight growth at 1500 g/ha applied to soil through spraying under greenhouse conditions; conditions: read-out: GI
[18] = test system: Amaranthus retroflexus; assay: Post-emergence herbicidal activity against Amaranthus retroflexus seedlings assessed as inhibition of plant fresh weight growth at 1500 g/ha applied through spraying under greenhouse conditions; conditions: read-out: GI
[19] = test system: Echinochloa crus-galli; assay: Pre-emergence herbicidal activity against Echinochloa crus-galli (barnyard grass) assessed as inhibition of plant fresh weight growth at 1500 g/ha applied to soil through spraying under greenhouse conditions; conditions: read-out: GI
[20] = test system: Brassica rapa subsp. oleifera; assay: Post-emergence herbicidal activity against Brassica rapa subsp. oleifera seedlings assessed as inhibition of plant fresh weight growth at 1500 g/ha applied through spraying under greenhouse conditions; conditions: read-out: GI
[21] = test system: Digitaria sanguinalis; assay: Pre-emergence herbicidal activity against Digitaria sanguinalis (hairy crabgrass) assessed as inhibition of plant fresh weight growth at 1500 g/ha applied to soil through spraying under greenhouse conditions; conditions: read-out: GI
[22] = test system: Brassica rapa subsp. oleifera; assay: Pre-emergence herbicidal activity against Brassica rapa subsp. oleifera assessed as inhibition of plant fresh weight growth at 1500 g/ha applied to soil through spraying under greenhouse conditions; conditions: read-out: GI
[23] = test system: Echinochloa crus-galli; assay: Pre-emergence herbicidal activity against Echinochloa crus-galli (barnyard grass) assessed as inhibition of plant fresh weight growth at 150 g/ha applied to soil through spraying under greenhouse conditions; conditions: read-out: GI
[24] = test system: Brassica rapa subsp. oleifera; assay: Pre-emergence herbicidal activity against Brassica rapa subsp. oleifera assessed as inhibition of plant fresh weight growth at 150 g/ha applied to soil through spraying under greenhouse conditions; conditions: read-out: GI
[25] = test system: Digitaria sanguinalis; assay: Post-emergence herbicidal activity against Digitaria sanguinalis (hairy crabgrass) seedlings assessed as inhibition of plant fresh weight growth at 150 g/ha applied through spraying under greenhouse conditions; conditions: read-out: GI
[26] = test system: Amaranthus retroflexus; assay: Post-emergence herbicidal activity against Amaranthus retroflexus seedlings assessed as inhibition of plant fresh weight growth at 150 g/ha applied through spraying under greenhouse conditions; conditions: read-out: GI
[27] = test system: Echinochloa crus-galli; assay: Post-emergence herbicidal activity against Echinochloa crus-galli (barnyard grass) seedlings assessed as inhibition of plant fresh weight growth at 150 g/ha applied through spraying under greenhouse conditions; conditions: read-out: GI
[28] = test system: Brassica rapa subsp. oleifera; assay: Post-emergence herbicidal activity against Brassica rapa subsp. oleifera seedlings assessed as inhibition of plant fresh weight growth at 150 g/ha applied through spraying under greenhouse conditions; conditions: read-out: GI
[29] = test system: Digitaria sanguinalis; assay: Pre-emergence herbicidal activity against Digitaria sanguinalis (hairy crabgrass) assessed as inhibition of plant fresh weight growth at 150 g/ha applied to soil through spraying under greenhouse conditions; conditions: read-out: GI
[30] = test system: Amaranthus retroflexus; assay: Pre-emergence herbicidal activity against Amaranthus retroflexus assessed as inhibition of plant fresh weight growth at 150 g/ha applied to soil through spraying under greenhouse conditions; conditions: read-out: GI

COc1cc(/C=C2\Oc3cc(OC)c(C)c(OC)c3C2=O)ccc1OCc1ccccc1
inhibition of growth at 10 µg/mL [1]: 42.6% | Activity [2]: 100% | inhibition of growth at 1000 µg/mL [3]: 45.1% | Activity [4]: 65.5% | Activity [5]: 91.7% | Activity [6]: 0% | Activity [7]: 100% | inhibition of growth at 100 µg/mL [8]: 19% | inhibition of growth at 1000 µg/mL [9]: 99.5% | Activity [10]: 38.9% | inhibition of growth at 100 µg/mL [11]: 71.7% | Activity [12]: 100% | Activity [13]: 12.1% | Activity [14]: 16.3%

CN(C)c1ccc(/C=C2\Oc3cc(O)cc(O)c3C2=O)cc1
inhibition of growth at 1000 µg/mL [3]: 46.6% | Activity [6]: 0% | inhibition of growth at 100 µg/mL [8]: 3% | inhibition of growth at 1000 µg/mL [9]: 78.9% | Activity [10]: 27.8% | inhibition of growth at 100 µg/mL [11]: 54.2% | Activity [12]: 100% | Activity [14]: 16.9%

COc1cc(OC)c2c(c1)O/C(=C\c1ccccc1)C2=O
inhibition of growth at 10 µg/mL [1]: 81.3% | Activity [2]: 100% | inhibition of growth at 1000 µg/mL [3]: 20% | Activity [4]: 75.7% | inhibition of growth at 1500 g/ha [15]: 0% | Activity [5]: 95% | Activity [6]: 0% | Activity [7]: 100% | inhibition of growth at 1500 g/ha [16]: 0% | inhibition of growth at 1500 g/ha [17]: 0% | inhibition of growth at 1500 g/ha [18]: 42.2% | inhibition of growth at 100 µg/mL [8]: 0% | inhibition of growth at 1000 µg/mL [9]: 91.4% | inhibition of growth at 1500 g/ha [19]: 10% | inhibition of growth at 1500 g/ha [20]: 15% | Activity [10]: 22.5% | inhibition of growth at 100 µg/mL [11]: 88.5% | Activity [12]: 100% | Activity [13]: 2.5% | inhibition of growth at 1500 g/ha [21]: 0% | Activity [14]: 18.8% | inhibition of growth at 1500 g/ha [22]: 0%

O=C1/C(=C/c2ccccc2)Oc2cc(O)cc(O)c21
inhibition of growth at 1000 µg/mL [3]: 49.3% | Activity [7]: 100% | inhibition of growth at 100 µg/mL [8]: 19.9% | inhibition of growth at 1000 µg/mL [9]: 96.5% | inhibition of growth at 100 µg/mL [11]: 50.1% | Activity [12]: 100% | Activity [14]: 15.3%

COc1ccc(/C=C2\Oc3cc(OC)cc(OC)c3C2=O)cc1 [4,4',6-TRIMETHOXY-AURONE]
inhibition of growth at 10 µg/mL [1]: 63.2% | inhibition of growth at 1000 µg/mL [3]: 62.8% | inhibition of growth at 100 µg/mL [8]: 18.6% | inhibition of growth at 1000 µg/mL [9]: 87.8% | inhibition of growth at 100 µg/mL [11]: 72.3%

COc1cc(OC)c2c(c1)O/C(=C\c1ccc(OC)c(OC)c1)C2=O [4,6,3',4'-TETRAMETHOXYAURONE]
Activity [2]: 100% | inhibition of growth at 1000 µg/mL [3]: 61.3% | Activity [4]: 69.6% | Activity [5]: 100% | Activity [6]: 0% | Activity [7]: 100% | inhibition of growth at 100 µg/mL [8]: 0.9% | inhibition of growth at 1000 µg/mL [9]: 77.9% | Activity [10]: 41.4% | inhibition of growth at 100 µg/mL [11]: 5.3% | Activity [12]: 100% | Activity [13]: 20% | Activity [14]: 13%

CS(=O)(=O)c1ccc(C(=O)C2C(=O)CCCC2=O)c([N+](=O)[O-])c1 [MESOTRIONE]
inhibition of growth at 10 µg/mL [1]: 80.3% | inhibition of growth at 1000 µg/mL [3]: 96.1% | inhibition of growth at 150 g/ha [23]: 92.5% | inhibition of growth at 150 g/ha [24]: 97.8% | inhibition of growth at 100 µg/mL [8]: 90.5% | inhibition of growth at 150 g/ha [25]: 100% | inhibition of growth at 150 g/ha [26]: 100% | inhibition of growth at 1000 µg/mL [9]: 93.4% | inhibition of growth at 150 g/ha [27]: 86.7% | inhibition of growth at 100 µg/mL [11]: 89.7% | inhibition of growth at 150 g/ha [28]: 100% | inhibition of growth at 150 g/ha [29]: 100% | inhibition of growth at 150 g/ha [30]: 97.9%

CCc1cccc(C)c1N(C(=O)CCl)C(C)COC (stereo not given) [METOLACHOR]
inhibition of growth at 1500 g/ha [15]: 46.3% | inhibition of growth at 1500 g/ha [16]: 54% | inhibition of growth at 1500 g/ha [17]: 100% | inhibition of growth at 1500 g/ha [18]: 66.4% | inhibition of growth at 1500 g/ha [19]: 100% | inhibition of growth at 1500 g/ha [20]: 100% | inhibition of growth at 1500 g/ha [21]: 100% | inhibition of growth at 1500 g/ha [22]: 88.3%
